In assay [1] the test system is MDA-MB-231 breast cancer cell. Nature of the assay: Cell death in MDA-MB-231 breast cancer cell cultures. The assay is classed as cell-based. The settings on record: 25 μM β-AED, 25 μM β-AET, 5 nM E2; PEG 300/LIPOFECTAMINE vehicle. The procedure:
(§1) Hormone dependent, noninvasive, epithelial phenotype (ER/PR positive MCF-7 breast cancer cells) and hormone independent, invasive, mesenchymal phenotype (ER/PR negative MDA-MB-231 breast cancer cell) cell suspensions were acquired and prepared in complete medium (DMEM/F12, 10% FBS, 1% penicillin/streptomycin (Gibco)). Cellular concentration was adjusted to 2×10^5 cells/mL.
(§2) Androstene hormone solutions according to embodiments of the present invention were prepared from a first solution and a second solution. For the first solution, 3.0 mg of β-AED or β-AET was added to warm PEG 300 to prepare 50 mM stock. For the second solution, 10 μL of LIPOFECTAMINE (3:1 DOSPA:DOPE) was introduced to 100 μL of PEG 300, mixed, and incubated in a water bath at 42° C. for 30 min. The first and second solutions were then mixed in a sonicator water bath at 42° C. for 1 hr. The final concentration was 50 mM β-AED (or AET, as used).
(§3) A β-estradiol solution was also prepared by adding 2.7 mg of β-estradiol to 200 μL warmed PEG 300 with LIPOFECTAMINE and then further diluted 1:1000 with PEG-300. The final concentration was 50 μM.
A diluted β-AED (or β-AET) solution was prepared with complete medium at a final concentration of 50 μM (1:1000 dilute of 50 mM). Likewise, a diluted β-E2 solution was prepared with complete medium at a final concentration of 10 nM (1:5000 dilute of 50 μM). […]

Assay [2] has as its system MCF-7 breast cancer cells. Nature of the assay: Cell death and growth in MCF-7 breast cancer cell cultures. The assay is classed as cell-based. As to conditions: for MCF7 Cell Death Amount: 25 μM β-AED, 25 μM β-AET, PEG 300/LIPOFECTAMINE vehicle; for cell growth / cell density (microscopic photograph): compared to vehicle FIG. 14. The procedure:
as §1, §2, §3
A diluted β-AED (or β-AET) solution was prepared with complete medium at a final concentration of 50 μM (1:1000 dilute of 50 mM). Likewise, a diluted β-E2 solution was prepared with complete medium at a final concentration of 10 nM (1:5000 dilute of 50 μM).
Using a 24-well plate, mixtures of 0.5 mL of cells per well with 0.5 mL of medium diluted hormone vehicle. Cell cultures were maintained at 90% humidity, 7% CO2, and 37° C.

The next assay deals with 293T cells. Nature of the assay: Biological function (phenotype, mobile cells) in 293T cells. The assay is classed as cell-based, human. The protocol:
A non-toxic vehicle for administration of androstene hormones according to embodiments of the present invention was prepared from a first solution and a second solution. The first solution, comprising liposomal formulation, was placed in PEG 300 to a concentration of 5% and heated in a sonicating water bath to about 45° C. The second solution, comprising a selected hormone (one or more of 5Δ-androsten-3β, 17α-diol, 5Δ-androsten-3β, 17β-diol, or 5Δ-androsten-3β,7β,17β-triol), was placed in PEG 300 and heated in a sonicating water bath to about 45° C. The first and second solutions were then combine and stirred until dissolved.
Biological function was tested in 293T cells, which is a human embryonic cell line transformed with Large T antigen […] SV40. This hypotriploid (polyploid) cell line is particularly useful in such transformation studies and has very distinct phenotypes when grown. All androstene hormone treatment applications were at concentrations of 25 μM.

Where [3] appears, read: MCF-7 grown for 5 days, 25 μM androstene, 5 nM E2.
Setting [4] is: vehicle PEG 300, androstene hormone 25 μM.

Take `C[C@]12CC[C@H]3[C@@H]([C@@H](O)C=C4C[C@@H](O)CC[C@@]43C)[C@@H]1CC[C@@H]2O` [β-AET, 5-androstene-3β,7β,17β-triol]: the “MDA-MB-231 Cell Death Amount” value in assay [1] is “Not observed”. In assay [2] (5 nM E2), the “MCF7 Cell Death Amount” value is “Not observed”. In addition, in assay [2] (setting [3]), the “cell growth / cell density (microscopic photograph)” value was “thick and similar to the cell growth of FIG. 14”.
On to `C[C@]12CC[C@H]3[C@@H](CC=C4C[C@@H](O)CC[C@@]43C)[C@@H]1CC[C@@H]2O` [β-AED, androst-5-ene-3β,17β-diol], for which, in the assay on 293T cells (setting [4]), the “cell islands (photograph)” value is listed as “cell islands are larger” and the “mobile cells / cell processes (photograph)” value was “significant reduction in mobile cells”. Moreover, the “mobile cells / mobile elements and processes (photograph)” value with 293T cells (vehicle PEG 300 and LIPOFECTAMINE, β-AED 25 μM, E2 5 nM) is reported as “drastic decrease in, or morphological change, in mobile elements”. In addition, the “MDA-MB-231 Cell Death Amount” value in assay [1] was “Not observed”. For the same molecule, the “MCF7 Cell Death Amount” value in assay [2] (5 nM E2) was “Not observed”. In addition, in assay [2] (setting [3]), the “particles / cell bodies produced by cells in response to treatment” value was “small particles”; the “cell growth / cell density (microscopic photograph)” value is “not as heath and there are areas of decreased density”. In addition, the “Additional Observation” value in assay [2] (cell line not given, particles shown for MCF-7 in FIG. 15) was “Cell particles observed”.

These data come from patent publication US20180207177A1, “TREATMENT OF TRIPLE NEGATIVE BREAST CANCER UTILIZING ANDROST-5-ENE-3b,17b-DIOL (b-AED), ANDROST-5-ENE-3b,7b,17b-TRIOL (b-AET) AND ESTRADIOL (E2)” (Government of the United States as Represented by the …, priority 2017, published 2018).
